Results: paper PMC11255275, “Structural insights into the triple agonism at GLP-1R, GIPR and GCGR manifested by retatrutide” (Cell Discovery, 2024)
Like-named read-outs stand apart in the source and are kept apart here.

Columns and labels:
GIPR mutants [1] = molecular target: T1, GIPR mutants (Homo sapiens, UniProt P48546, Q285A); experiment: cAMP accumulation, single-point mutated GIPR; assay type: cell-based; details: GIPR Q285(ECL2)A; HEK-293T, 40 min, TR-FRET; mean ± S.E.M., n at least 3
T1 construct: expressed in transfected cells; host or cells: HEK-293T
T1 sequence (P48546 22-466 Q285A): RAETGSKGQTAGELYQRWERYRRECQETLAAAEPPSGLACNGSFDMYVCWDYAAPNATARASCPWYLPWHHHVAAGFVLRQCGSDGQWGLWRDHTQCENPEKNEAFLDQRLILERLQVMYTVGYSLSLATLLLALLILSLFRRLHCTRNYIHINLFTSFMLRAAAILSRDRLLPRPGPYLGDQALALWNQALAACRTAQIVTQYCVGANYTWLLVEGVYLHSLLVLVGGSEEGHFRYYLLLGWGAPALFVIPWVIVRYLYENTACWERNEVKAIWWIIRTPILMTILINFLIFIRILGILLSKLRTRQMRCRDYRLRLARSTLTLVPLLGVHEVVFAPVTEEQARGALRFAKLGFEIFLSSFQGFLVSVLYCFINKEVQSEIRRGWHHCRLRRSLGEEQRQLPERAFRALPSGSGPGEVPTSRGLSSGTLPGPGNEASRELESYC
Protocol: (§1) HEK-293T cells were maintained at 37°C in 5% CO2 incubator and seeded onto 6-well cell […]
(§2) culture plates before transfection. After overnight culture, the cells were transiently transfected […]
(§3) with various constructs using Lipofectamine 2000 transfection reagent (Invitrogen). After 24 h, […]
(§4) the transfected cells were seeded onto 384-microtiter plates at a density of 3,000 cells per well […]
(§5) in stimulation buffer (HBSS supplemented with 5 mM HEPES, 0.1% (w/v) casein and 0.5 mM […]
(§6) 3-isobutyl-1-methylxanthine). Different concentrations of retatrutide in stimulation buffer were […]
(§7) added, and the stimulation lasted for 40 min. The reaction was stopped by addition of cAMP […]
(§8) detection buffer containing Eu-cAMP tracer and ULight-anti-cAMP. Plates were then incubated for […]
(§9) 60 min at RT. Time-resolved FRET signals were measured at 620 nm and 665 nm, respectively, by […]
(§10) an EnVision multilabel plate reader (PerkinElmer). Data were analyzed in GraphPad PRISM 9.5 […]
(§11) and all values were normalized to that of the wild-type (WT).
(§12) Supplementary Fig. 5 Effects of receptor mutation on retatrutide-induced cAMP […]
(§13) accumulation. a-c, Signaling profiles of GLP-1R (a), GIPR (b) and GCGR (c) mutants. cAMP […]
(§14) accumulation was measured in wild-type (WT) and single-point mutated GLP-1R, GIPR or […]
(§15) GCGR expressing HEK-293T cells. cAMP levels were normalized to the maximum response […]
(§16) of the WT and dose-response curves were analyzed using a three-parameter logistic equation.
(§17) Data were generated and graphed as means ± S.E.M. of at least three independent experiments performed in quadruplicate.
(§18) (1 picture or pasted object on this page, not shown here)
(§19) Supplementary Ta b l e S 5 Effects of the ligand-binding pocket residue mutation on retatrutide- […]
(§20) induced cAMP signaling at GLP-1R, GIPR or GCGR. […]
(§21) cAMP levels were normalized to the maximum response of the wild-type (WT) and dose-response […]
(§22) curves were analyzed using a three-parameter logistic equation to obtain pEC50 and Emax values. The […]
(§23) experiments were carried out independently at least three times. Data shown are means ± S.E.M. One- […]
(§24) way ANOVA was used to determine statistical difference. N.D., values that could not be determined due […]
(§25) to incomplete curve fits. *P< 0.05, **P< 0.01, ***P< 0.001 and ****P<0.0001.

GIPR mutants [2] = molecular target: T2, GIPR mutants (Homo sapiens, UniProt P48546, E377A); experiment: cAMP accumulation, single-point mutated GIPR; assay type: cell-based
T2 construct: expressed in transfected cells; host or cells: HEK-293T
T2 sequence (P48546 22-466 E377A): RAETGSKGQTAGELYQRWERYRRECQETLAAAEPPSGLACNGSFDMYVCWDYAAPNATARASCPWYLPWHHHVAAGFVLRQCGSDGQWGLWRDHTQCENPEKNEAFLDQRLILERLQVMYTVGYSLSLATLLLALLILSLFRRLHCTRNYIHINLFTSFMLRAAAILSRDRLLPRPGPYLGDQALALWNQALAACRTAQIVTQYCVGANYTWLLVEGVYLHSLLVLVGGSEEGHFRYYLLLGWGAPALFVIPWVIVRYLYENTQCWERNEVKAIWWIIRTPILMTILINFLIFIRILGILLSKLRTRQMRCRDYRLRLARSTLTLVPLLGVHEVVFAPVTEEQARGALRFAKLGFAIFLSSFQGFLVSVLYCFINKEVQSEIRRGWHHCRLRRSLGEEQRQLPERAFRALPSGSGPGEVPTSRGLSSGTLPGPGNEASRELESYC
Protocol: as §1, §2, §3, §4, §5, §6, §7, §8, §9, §10, §11, §12, §13, §14, §15, §16, §17, §18, §19, §20, §21, §22, §23, §24, §25

GIPR mutants [3] = molecular target: T3, GIPR mutants (Homo sapiens, UniProt P48546, E288T); experiment: cAMP accumulation, single-point mutated GIPR; assay type: cell-based; details: GIPR E288(45.52b)T, HEK-293T, 40 min, TR-FRET, mean ± S.E.M., n at least 3
T3 construct: expressed in transfected cells; host or cells: HEK-293T
T3 sequence (P48546 22-466 E288T): as the sequence (P48546 22-466 Q285A) above, with A264Q, E267T counted along it
Protocol: as §1, §2, §3, §4, §5, §6, §7, §8, §9, §10, §11, §12, §13, §14, §15, §16, §17, §18, §19, §20, §21, §22, §23, §24, §25

GCGR mutants [4] = molecular target: T4, GCGR mutants (Homo sapiens, UniProt P47871, W215A); experiment: cAMP accumulation, single-point mutated GCGR; assay type: cell-based; details: GCGR W215(ECL1)A, HEK-293T, 40 min, TR-FRET, mean ± S.E.M., n at least 3
T4 construct: expressed in transfected cells; host or cells: HEK-293T
T4 sequence (P47871 26-477 W215A): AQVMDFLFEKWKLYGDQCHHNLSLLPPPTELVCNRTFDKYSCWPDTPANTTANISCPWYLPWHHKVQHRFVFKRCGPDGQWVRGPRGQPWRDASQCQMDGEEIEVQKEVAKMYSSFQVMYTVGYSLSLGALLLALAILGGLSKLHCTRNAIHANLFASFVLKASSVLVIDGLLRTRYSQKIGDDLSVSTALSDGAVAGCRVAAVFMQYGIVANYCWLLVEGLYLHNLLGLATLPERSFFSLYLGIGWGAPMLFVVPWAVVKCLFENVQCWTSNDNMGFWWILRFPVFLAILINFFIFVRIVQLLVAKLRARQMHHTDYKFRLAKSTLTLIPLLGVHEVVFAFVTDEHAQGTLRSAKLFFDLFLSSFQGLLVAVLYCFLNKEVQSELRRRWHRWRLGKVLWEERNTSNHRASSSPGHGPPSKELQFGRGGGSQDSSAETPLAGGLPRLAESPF
Protocol: as §1, §2, §3, §4, §5, §6, §7, §8, §9, §10, §11, §12, §13, §14, §15, §16, §17, §18, §19, §20, §21, §22, §23, §24, §25

GCGR mutants [5] = molecular target: T5, GCGR mutants (Homo sapiens, UniProt P47871, E362A); experiment: cAMP accumulation, single-point mutated GCGR; assay type: cell-based; details: GCGR E362(6.53b)A, HEK-293T, 40 min, TR-FRET, mean ± S.E.M., n at least 3
T5 construct: expressed in transfected cells; host or cells: HEK-293T
T5 sequence (P47871 26-477 E362A): as the sequence (P47871 26-477 W215A) above, with A190W, E337A counted along it
Protocol: as §1, §2, §3, §4, §5, §6, §7, §8, §9, §10, §11, §12, §13, §14, §15, §16, §17, §18, §19, §20, §21, §22, §23, §24, §25

GCGR mutants [6] = molecular target: T6, GCGR mutants (Homo sapiens, UniProt P47871, Y138L); experiment: cAMP accumulation, single-point mutated GCGR; assay type: cell-based; details: GCGR Y138(1.36b)L, HEK-293T, 40 min, TR-FRET, mean ± S.E.M., n at least 3
T6 construct: expressed in transfected cells; host or cells: HEK-293T
T6 sequence (P47871 26-477 Y138L): as the sequence (P47871 26-477 W215A) above, with Y113L, A190W counted along it
Protocol: as §1, §2, §3, §4, §5, §6, §7, §8, §9, §10, §11, §12, §13, §14, §15, §16, §17, §18, §19, §20, §21, §22, §23, §24, §25

GCGR mutants [7] = molecular target: T7, GCGR mutants (Homo sapiens, UniProt P47871, D385A); experiment: cAMP accumulation, single-point mutated GCGR; assay type: cell-based; details: GCGR D385(7.42b)A, HEK-293T, 40 min, TR-FRET, mean ± S.E.M., n at least 3
T7 construct: expressed in transfected cells; host or cells: HEK-293T
T7 sequence (P47871 26-477 D385A): as the sequence (P47871 26-477 W215A) above, with A190W, D360A counted along it
Protocol: as §1, §2, §3, §4, §5, §6, §7, §8, §9, §10, §11, §12, §13, §14, §15, §16, §17, §18, §19, §20, §21, §22, §23, §24, §25

GCGR mutants [8] = experiment: cAMP accumulation, single-point mutated GCGR; assay type: cell-based, human; details: relative to WT
Protocol: as §1, §2, §3, §4, §5, §6, §7, §8, §9, §10, §11, §12, §13, §14, §15, §16, §17, §18, §19, §20, §21, §22, §23, §24, §25

GCGR = details: less potent than the endogenous hormone; cited from earlier work
Description: (§26) The most successful treatments currently available include glucagon-like peptide-1 (GLP-1) receptor agonists (GLP-1RAs), exemplified by semaglutide (approved in 2017, $19.9 billion sales in 2023)[3] and tirzepatide (approved in 2022, $5.3 billion sales in 2023)[4].

GIPR = details: GIPR, more potent than the endogenous hormone by this factor; cited from earlier work
Description: as §26

GLP-1R = details: GLP-1R, less potent than the endogenous hormone, factor; cited from earlier work
Description: as §26

[9] = cited from earlier work; for decrease in body weight (up to): single dose, ref Coskun T et al (supplement ref 17)
Description: For humans, events were mild, such as 50 1 ascending (PMID: 4 months ...

CC[C@H](C)[C@H](NC(=O)[C@H](Cc1ccccc1)NC(=O)[C@H](C)NC(=O)C(C)(C)NC(=O)[C@H](CCC(N)=O)NC(=O)[C@H](C)NC(=O)[C@H](CCCCNC(=O)COCCOCCNC(=O)CC[C@H](NC(=O)CCCCCCCCCCCCCCCCCCC(=O)O)C(=O)O)NC(=O)[C@H](CCCCN)NC(=O)[C@H](CC(=O)O)NC(=O)[C@H](CC(C)C)NC(=O)[C@](C)(CC(C)C)NC(=O)[C@@H](NC(=O)[C@H](CO)NC(=O)[C@H](Cc1ccc(O)cc1)NC(=O)[C@H](CC(=O)O)NC(=O)[C@H](CO)NC(=O)[C@@H](NC(=O)[C@H](Cc1ccccc1)NC(=O)[C@@H](NC(=O)CNC(=O)[C@H](CCC(N)=O)NC(=O)C(C)(C)NC(=O)[C@@H](N)Cc1ccc(O)cc1)[C@@H](C)O)[C@@H](C)O)[C@@H](C)CC)C(=O)N[C@@H](CCC(=O)O)C(=O)N[C@@H](Cc1ccc(O)cc1)C(=O)N[C@@H](CC(C)C)C(=O)N[C@@H](CC(C)C)C(=O)N[C@@H](CCC(=O)O)C(=O)NCC(=O)NCC(=O)N1CCC[C@H]1C(=O)N[C@@H](CO)C(=O)N[C@@H](CO)C(=O)NCC(=O)N[C@@H](C)C(=O)N1CCC[C@H]1C(=O)N1CCC[C@H]1C(=O)N1CCC[C@H]1C(=O)N[C@@H](CO)C(N)=O [retatrutide]
EC50 (GIPR mutants [1]): 0.00174 nM | Emax ± S.E.M. (% WT) (GIPR mutants [1]): 100.34 ± 4.02 % WT | decrease of cAMP signaling potency by mutation (GIPR mutants [2]; GIPR E7.42bA (E377A), relative to WT): 71.6 fold | Emax ± S.E.M. (% WT) (GIPR mutants [2]; GIPR E377(7.42b)A, HEK-293T, 40 min, TR-FRET, mean ± S.E.M., n at least 3): 99.83 ± 6.38 % WT | EC50 (GIPR mutants [2]; GIPR E377(7.42b)A, HEK-293T, 40 min, TR-FRET, mean ± S.E.M., n at least 3, ****P < 0.0001): 0.166 nM | Emax ± S.E.M. (% WT) (GIPR mutants [3]): 100.81 ± 2.93 % WT | EC50 (GIPR mutants [3]; **P < 0.01): 0.00891 nM | Emax ± S.E.M. (% WT) (GCGR mutants [4]): 101.34 ± 2.03 % WT | EC50 (GCGR mutants [4]; ****P < 0.0001): 0.0661 nM | Emax ± S.E.M. (% WT) (GCGR mutants [5]): 100.39 ± 2.54 % WT | EC50 (GCGR mutants [5]; ****P < 0.0001): 0.0661 nM | Emax ± S.E.M. (% WT) (GCGR mutants [6]): 100.64 ± 1.39 % WT | EC50 (GCGR mutants [6]; *P < 0.05): 0.00398 nM | Emax ± S.E.M. (% WT) (GCGR mutants [7]): 100.58 ± 1.33 % WT | EC50 (GCGR mutants [7]; ****P < 0.0001): 0.0479 nM | change of retatrutide potency by mutation (GCGR mutants [8]; GCGR S297(ECL2)A): slightly increased | decrease of cAMP signaling potency by mutation (GCGR mutants [8]; GCGR Y138(1.36b)A): 26.9 fold | change of cAMP signaling potency by mutation (GCGR mutants [8]; GCGR Y138(1.36b)L): moderately increased | potency factor compared to endogenous hormone (GCGR): 0.3 | potency factor compared to endogenous hormone (GIPR): 8.9 | potency factor compared to endogenous hormone (GLP-1R): 0.4 | body weight reduction ([9]; 3 mg group, ref Urva S et al (supplement ref 18)): –4.71 kg | decrease in body weight (up to) ([9]; 4.5 mg): –2.93 kg | decrease in body weight (up to) ([9]; 6 mg): –3.52 kg | body weight reduction ([9]; 3/6 mg group, ref Urva S et al (supplement ref 18)): –7.83 kg | fasting and postprandial plasma glucose and HbA1c ([9]; compared to placebo, ref Urva S et al (supplement ref 18)): clinically decreases | severity of most treatment-related adverse events ([9]; human, in vivo): mild | glycemic control ([9]; ref Urva S et al (supplement ref 18)): showed glycemic control efficacy
